In patent publication US12546785B2, “IL-17F and IL-17A-specific capture agents, compositions, and methods of using and making” (Regeneron Pharmaceuticals, Inc., priority 2017, dated 2026):
Bridge positions count the residues as written; N and C are the ends. Square brackets hold non-standard residues; d marks the D form. Triazole bridges read from a SMILES are 1,4-linked. Peptide text beside a SMILES is read from it. * marks the point of attachment. ξ: configuration not given here. Biotinyl(3aR,4R,6aS) = O=C1N[C@@H]2[C@@H](CS[C@@H]2CCCCC(=O)*)N1; X1 = O=C(CCCCC1SC[C@H]2NC(=O)N[C@@H]12)NCCCOCCOCCOCCCN*; Lys(N3) = [N-]=[N+]=NCCCC[C@H](N)C(=O)O; Thr(3ξ) = CC(O)[C@H](N)C(=O)O; AEEEA = NCCOCCOCCOCC(=O)O; Pra = C#CC[C@H](N)C(=O)O

Tests used:
trypsin = experiment: Trypsin protease digestion, analytical HPLC; format: in vitro ADME; settings: trypsin 1 h at 37° C., analytical HPLC at 215 nm
Protocol: Bi-LF Biotin-PEG3-Cy(RSYNKX1X2) (SEQ ID NO:102)-PEG3-Cy(RRATSX1X2) (SEQ ID NO:83) (X1=azidolysine and X2=propargylglycine) was incubated with trypsin to study its susceptibility to protease digestion. Trypsin can cleave peptides and proteins on the C-terminal side of lysine and arginine L-amino acids. For this assay, test compounds were treated with trypsin protease (1 h at 37° C.) or left untreated as a control. In an Eppendorf tube, 4 μL of trypsin solution (10 μg/mL in 1 mM HCl) and 80 pmol of biligand were added to TBS for a final volume of 20 μL. The solution was incubated for 1 h at 37° C., and then further diluted with 80 μL TBS. 50 μL of each sample was injected into a Dionex Ultimate 3000 series analytical HPLC fitted with a Phenomenex Luna-C18 column, and eluted with a gradient of 10%-62% acetonitrile in 0.1% TFA (v/v) in water over 45 min. The samples were monitored at 215 nm.

[1] = biological target: T1, full-length His-tagged IL-17F protein (Homo sapiens, UniProt Q96PD4); experiment: Sandwich ELISA: IL-17F captured by ligand immobilized on NeutrAvidin plate; format: binding; settings: for binding affinity compared, in words: sandwich ELISA, IL-17F
T1 construct: Full-length His-tagged IL-17F protein (ab167911, Abcam) was serially diluted in Wash Buffer; purchased Abcam ab167911
T1 sequence (Q96PD4 31-163): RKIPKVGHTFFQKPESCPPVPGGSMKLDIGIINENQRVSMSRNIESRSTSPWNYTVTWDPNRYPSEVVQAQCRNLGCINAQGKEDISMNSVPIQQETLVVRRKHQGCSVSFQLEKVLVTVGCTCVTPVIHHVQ
Protocol: Sandwich ELISA. A black 96-well NeutrAvidin Coated High Binding Capacity plate (15510, Pierce) was coated with 2 μM macrocyclic peptide ligand in TBS (25 mM Tris-HCl, 150 mM NaCl, pH 7.6) for 2 h at room temperature. Biotinylated monoclonal anti-IL17F (TA319597, Origene) was coated at 4 μg/mL in TBS as a control. The plate was aspirated and then washed with TBS (5×) and Wash Buffer (0.05% (v/v) Tween-20 in PBS, 1×). Full-length His-tagged IL-17F protein (ab167911, Abcam) was serially diluted in Wash Buffer (from 800 to 0 nM) and incubated in the designated microwells for 90 min at room temperature. Microwells were aspirated and subsequently washed with Wash Buffer (10×). To detect the bound IL-17F protein, Alkaline Phosphatase (AP)-conjugated Anti-6X His tag® antibody [HIS-1] (ab49746, Abcam) was prepared at 1:10,000 dilution and added to the microwells for 1 h at room temperature. The plate was aspirated and washed with Wash Buffer (11×). AttoPhos® AP Fluorescent Substrate System (S1000, Promega) was employed to develop the microwells. Using an excitation wavelength of 430 nm, fluorescent emission at 535 nm was recorded by Beckman Coulter DTX880 photometer. Titration curves were fit using a four-parameter regression curve fitting program (Origin 8.5) to determine EC50 values.
(§1) For these assays, a dilution series of full-length His-tagged IL-17F protein was captured using the macrocyclic peptide ligands immobilized on a NeutrAvidin-coated plate.
Sandwich ELISA. These assays were performed using the same protocol that was used to evaluate the IL-17F Epitope1 targeted ligands.
as §1

IL-17F protein [2] = biological target: T2, IL-17F protein (Homo sapiens, UniProt Q96PD4); experiment: Fluorescence polarization titration in solution; format: binding
T2 construct: His tag
T2 sequence (Q96PD4 31-163): T1 sequence (Q96PD4 31-163)
Protocol: The bonding affinities of the macrocycles were tested in solution by titrating the recombinant human IL-17F protein against fluorescein 5-isothiocyanate (5-FITC)-tagged macrocycles by fluorescence polarization. […] The structure of LA3 (SEQ ID NO:44), the lead macrocycle developed against IL-17A Epitope3, is shown below (X=PEG3-biotin). MALDI-TOF MS (m/z): calcd. for C62H98N22O13S (M+H) 1391.74; found 1392.36.

IL-17F protein [3] = biological target: T2, IL-17F protein; experiment: IL-17F binding in a background of human serum, surface-immobilized ligand; settings: up to 10% (v/v) serum
From the text: Binding to IL-17F in 25% (v/v) serum is also detectable.
Target binding in biologically complex samples was interrogated by contacting surface-immobilized macrocycles with IL-17F protein in a background of human serum.

[4] = biological target: T3, His-tagged IL-17F Epitope1 (C48S) (Homo sapiens, UniProt Q96PD4); experiment: Assay to determine orientation of macrocycle binding to IL-17F Epitope1 (point ELISA with His-tagged epitopes); settings: epitope 2 μM, unscrambled
T3 construct: made in house; host or cells: chemical peptide synthesis
Protocol: (§2) Assay to determine orientation of macrocycle binding to IL-17F Epitope1. A black 96-well NeutrAvidin Coated High Binding Capacity plate (15510, Pierce) was coated with 2 μM macrocyclic peptide ligand in TBS (pH 7.6) for 2 h at room temperature. Biotinylated monoclonal anti-IL17F (TA319597, Origene) was coated at 4 μg/mL in TBS as a control. The plate was aspirated and then washed with TBS (5×) and Wash Buffer (0.05% (v/v) Tween-20 in PBS, 1×). Chemically synthesized His-tagged IL-17F epitopes were prepared at 2 μM in Wash Buffer and incubated in the designated microwells for 90 min at room temperature. Wash Buffer without epitope was added as a control. Microwells were aspirated and subsequently washed with Wash Buffer (10×). To detect the bound IL-17F epitopes, Alkaline Phosphatase (AP)-conjugated Anti-6X His tag® antibody [HIS-1] (ab49746, Abcam) was prepared at 1:10,000 dilution and added to the microwells for 1 h at room temperature. The plate was aspirated and washed with Wash Buffer (11×). AttoPhos® AP Fluorescent Substrate System (S1000, Promega) was employed to develop the microwells. Using an excitation wavelength of 430 nm, fluorescent emission at 535 nm was recorded by Beckman Coulter DTX880 photometer. Data are shown after subtraction of the no-epitope background.
(§3) For this experiment, the IL-17F Epitope1 was re-synthesized with a His6 assay handle and C48S substitution instead of a click handle. Two additional His-tagged IL-17F epitopes were synthesized to contain strategic scrambling of the sequences either N-terminal or C-terminal to C48S (scrambled residues are shown in italics): • 1) His6-PEG3-[…] (SEQ ID NO:39); • 2) His6-PEG3-[…] (scrambled C-terminal to click handle; SEQ ID NO:40); • 3) His6-PEG3-[…] (scrambled N-terminal to click handle; SEQ ID NO:41).
(§4) In anticipation of forming a biligand with LF2 (SEQ ID NO: 28), it was important to gain insight on whether LF1 (SEQ ID NO:9) preferentially binds to the N- or C-terminus of Epitope1. Therefore, two His-tagged IL-17F epitopes were generated, scrambling the sequence either N-terminal or C-terminal to the location of the azide click handle. His6 assay handle and C48S substitution instead of a click handle. The scrambled amino acids are shown in italics. MALDI-TOF MS (m/z): calculated for C116H163N37O31 (M+H) 2571.23; found 2571.57.

[5] = test system: His-tagged IL-17F Epitope1 (C48S); experiment: as above; settings: epitope 2 μM
Protocol: as §2, §3, §4

susceptibility to trypsin digestion (trypsin)	Kd (IL-17F protein [2]; 5-FITC-tagged macrocycles, in solution) [nM]	standard Gibbs free energy change (ΔG°=RTlnKD) of binding to IL-17F (IL-17F protein [2]; 25° C.) [kcal/mol]	IL-17F binding efficiency in human serum (IL-17F protein [3])	Kd ([1]; against His-tagged IL-17F) [nM]	EC50 ([1]; surface-immobilized ligand, dilution series of His-tagged IL-17F) [nM]	SMILES	binding affinity compared, in words [1]	ELISA signal for His-tagged IL-17F Epitope1 (C48S) [4]	ELISA signal for epitope scrambled C-terminal to click handle [5]	binding to epitope scrambled N-terminal to click handle [5]
resistant to trypsin digestion						CC(O)[C@@H]1NC(=O)[C@H](C)NC(=O)[C@@H](CCCNC(=N)N)NC(=O)[C@@H](CCCNC(=N)N)NC(=O)[C@@H](NC(=O)COCCOCCOCCNC(=O)[C@@H]2CCCCn3cc(nn3)C[C@H](NC(=O)COCCOCCOCCNC(=O)CCCC[C@H]3SC[C@H]4NC(=O)N[C@H]43)C(=O)N[C@H](CCCNC(=N)N)C(=O)N[C@@H](CO)C(=O)N[C@@H](Cc3ccc(O)cc3)C(=O)N[C@@H](CC(N)=O)C(=O)N[C@H](CCCCN)C(=O)N2)Cc2cn(nn2)CCCC[C@@H](C(N)=O)NC(=O)[C@H](CO)NC1=O (stereo partly drawn) [Bi-LS, Biotin-PEG3-Cy(rSYNkX1X2)-PEG3-Cy(rrATSX1X2)] ({Biotinyl(3aR,4R,6aS)-AEEEA}-[Pra][dR]SYN[dK][Lys(N3)][AEEEA][Pra][dR][dR]A[Thr(3ξ)]S[Lys(N3)]-NH2; triazole 1-7, 9-15)	slightly weaker binding			
	28 ± 9	-10.3	reduced intensity	15	15 ± 5	C=C1N[C@@H](CCCCN)C(=O)N[C@H](C(N)=O)CCCCn2cc(nn2)C[C@H](NC(=O)COCCOCCOCCNC(=O)CCCC[C@@H]2SC[C@@H]3NC(=O)N[C@@H]32)C(=O)N[C@@H](CCCNC(=N)N)C(=O)N[C@@H](CO)C(=O)N[C@@H](Cc2ccc(O)cc2)C(=O)N[C@H]1CC(N)=O [Cy(RSYNKX1X2), Biotin-PEG3-Cy(RSYNKXIX2)]	exceeds the binding affinity of the similarly assayed biotinylated monoclonal anti-IL17F			
						C[C@@H]1NC(=O)[C@H](CCCNC(=N)N)NC(=O)[C@H](CCCNC(=N)N)NC(=O)[C@@H](N)Cc2cn(nn2)CCCC[C@@H](C(=O)NCCCOCCOCCOCCCNC(=O)CCCCC2SC[C@H]3NC(=O)N[C@@H]23)NC(=O)[C@H](CO)NC(=O)[C@H](CCC(N)=O)NC1=O (some centres unmarked) [Cy(RRAQSX1X2), Cy(RRAQSX1X2)-PEG3-biotin] (H-[Pra]RRAQS[Lys(N3)]-X1; triazole 1-7)		positive ELISA signals	positive ELISA signals	Binding was destroyed
